One assay deals with MDA-MB-231 cells. As to the kind of experiment: Cell proliferation assay (CellTiter-Glo), MDA-MB-231. The note with it: Homo sapiens, MDA-MB-231, 72 h, 72 h treatment, Celltiter-Glo luminescence. Format: cell-based. In outline:
(§1)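 Compounds tested over ten concentrations ([…]) for 72 h on EVSA-T cells in MEM/10% FBS and MDA-MB-231 cells in RPMI-1640/10% FBS, seeded at 10000/well. Luminescent CellTiter-Glo readout; IC50 fitted after normalisation to controls.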
(Cellular ATP, detected with luciferase, serves as a proxy for viable cell number.)

Another assay relates to EVSA-T cells. As to the kind of experiment: Cell proliferation assay (CellTiter-Glo), EVSA-T. In kind it is cell-based. Particulars: Homo sapiens, EVSA-T, 72 h, 72 h treatment, Celltiter-Glo luminescence. In outline:
as §1

Our source for the IC50 values is patent publication US20250179073A1, “TRICYCLIC HETEROCYCLE COMPOUNDS AS IAP ANTAGONISTS” (Ascentage Pharma (Suzhou) Co., Ltd., priority 2022, published 2025).

In general, IC50 refers to the midpoint of a concentration-inhibition curve. For `C[C@@H]1CN(CC(=O)N2CC(C)(C)c3c2cc(Cc2ccc(F)cc2)c2ncnn32)[C@@H](CN2CCOC3CC32)CN1` (stereo partly drawn) [Compound 202, 2-((2S,5R)-2-((2-oxa-5-azabicyclo[4.1.0]heptan-5-yl)methy 1)-5-methylpiperazin-1-yl)-1-(4-(4-fluorobenzyl)-8,8-dimethyl-7,8-dihydro-6H-pyrrolo[2,3-e][1,2,4]triazolo[1,5-a]pyridin-6-yl)ethan-1-one], the IC50 is 0.034 µM with MDA-MB-231 cells and 0.017 µM in the assay with EVSA-T cells.
Take `C[C@@H]1CN(CC(=O)N2CC(C)(C)c3c2cc(Cc2ccc(F)cc2)c2ncnn32)[C@@H](CN2CCN(C3COC3)C[C@H]2C)CN1` [Compound 203, 1-(4-(4-fluorobenzyl)-8,8-dimethyl-7,8-dihydro-6H-pyrrolo[2,3-e][1,2,4]triazolo[1,5-a]pyridin-6-yl)-2-((2R,5R)-5-methyl-2-(((R)-2-methyl-4-(oxetan-3-yl)piperazin-1-yl)methyl)piperazin-1-yl)ethan-1-one]: the IC50 came out at 0.01 µM in the assay with MDA-MB-231 cells and 0.003 µM in the assay with EVSA-T cells.
For `C[C@@H]1CN(CC(=O)N2CC(C)(C)c3c2cc(Cc2ccc(F)cc2)c2nc(N4CCOC4=O)nn32)[C@@H](CN2CCOC[C@H]2C)CN1` [Compound 204, 3-(4-(4-fluorobenzyl)-8,8-dimethyl-6-(2-((2R,5R)-5-methyl-2-(((R)-3-methylmorpholino)methyl)piperazin-1-yl)acetyl)-7,8-dihydro-6H-pyrrolo[2,3-e][1,2,4]triazolo[1,5-a]pyridin-2-yl)oxazolidin-2-one], the IC50 with MDA-MB-231 cells came out at 0.044 µM; in the assay on EVSA-T cells it was 0.014 µM.
Taken in the same sequence, the figures for `C[C@@H]1CN(CC(=O)N2CC(C)(C)c3c2cc(Cc2ccc(F)cc2)c2nc(C4COCCO4)nn32)[C@@H](CN2CCOC[C@H]2C)CN1` (stereo partly drawn) [Compound 206, 1-(2-(1,4-dioxan-2-yl)-4-(4-fluorobenzyl)-8,8-dimethyl-7,8-dihydro-6H-pyrrolo[2,3-e][1,2,4]triazolo[1,5-a]pyridin-6-yl)-2-((2R,5R)-5-methyl-2-(((R)-3-methylmorpholino)methyl)piperazin-1-yl)ethan-1-one] were 0.018 µM and 0.002 µM.
In the same order, the values of `C[C@@H]1CN(CC(=O)N2CC(C)(C)c3c2cc(Cc2ccc(F)cc2)c2ncnn32)[C@@H](CN2Cc3cccc(F)c3C2=O)CN1` [Compound 207, 7-fluoro-2-(((2R,5R)-1-(2-(4-(4-fluorobenzyl)-8,8-dimethyl-7,8-dihydro-6H-pyrrolo[2,3-e][1,2,4]triazolo[1,5-a]pyridin-6-yl)-2-oxoethyl)-5-methylpiperazin-2-yl)methyl)isoindolin-1-one] are 0.02 µM and 0.002 µM.
On to `C[C@@H]1CN(CC(=O)N2CC(C)(C)c3c2cc(Cc2ccc(F)cc2)c2nn(C4COC4)c(=O)n32)[C@@H](CN2CCOC[C@H]2C)CN1` [Compound 210, 4-(4-fluorobenzyl)-8,8-dimethyl-6-(2-((2R,5R)-5-methyl-2-(((R)-3-methylmorpholino)methyl)piperazin-1-yl)acetyl)-2-(oxetan-3-yl)-2,6,7,8-tetrahydro-1H-pyrrolo[2,3-e][1,2,4]triazolo[4,3-a]pyridin-1-one], for which the concentration for half-maximal inhibition (IC50) came out at 0.033 µM with MDA-MB-231 cells and 0.003 µM in the assay with EVSA-T cells.
Taken in the same sequence, the figures for `C[C@@H]1CN(CC(=O)N2CC(C)(C)c3c2cc(Cc2ccc(F)cc2)c2nc(CN(C)C)nn32)[C@@H](CN2CCOC[C@H]2C)CN1` [Compound 212, 1-(2-((dimethylamino)methyl)-4-(4-fluorobenzyl)-8,8-dimethyl-7,8-dihydro-6H-pyrrolo[2,3-e][1,2,4]triazolo[1,5-a]pyridin-6-yl)-2-((2R,5R)-5-methyl-2-(((R)-3-methylmorpholino)methyl)piperazin-1-yl)ethan-1-one] were 0.041 µM and 0.007 µM.
Turning to `C[C@@H]1CN(CC(=O)N2CC(C)(C)c3c2cc(Cc2ccc(F)cc2)c2ncnn32)[C@@H](CN2CC3CCC2CO3)CN1` (stereo partly drawn) [Compound 214, 2-((2R,5R)-2-((2-oxa-5-azabicyclo[2.2.2]octan-5-yl)methyl)-5-methylpiperazin-1-yl)-1-(4-(4-fluorobenzyl)-8,8-dimethyl-7,8-dihydro-6H-pyrrolo[2,3-e][1,2,4]triazolo[1,5-a]pyridin-6-yl)ethan-1-one], the IC50 is 0.049 µM with MDA-MB-231 cells and 0.008 µM in the assay with EVSA-T cells.
In the same order, the values of `C[C@@H]1CN(CC(=O)N2CC(C)(C)c3c2cc(Cc2ccc(F)cc2)c2nn([C@H]4CCOC4)c(=O)n32)[C@@H](CN2CCOC[C@H]2C)CN1` [Compound 218, 4-(4-fluorobenzyl)-8,8-dimethyl-6-(2-((2R,5R)-5-methyl-2-(((R)-3-methylmorpholino)methyl)piperazin-1-yl)acetyl)-2-((S)-tetrahydrofuran-3-yl)-2,6,7,8-tetrahydro-1H-pyrrolo[2,3-e][1,2,4]triazolo[4,3-a]pyridin-1-one] are 0.047 µM and 0.002 µM.
Taken in the same sequence, the figures for `C[C@@H]1CN(CC(=O)N2CC(C)(C)c3c2cc(Cc2ccc(F)cc2)c2nn(Cc4cccc(F)n4)c(=O)n32)[C@@H](CN2CCOC[C@H]2C)CN1` [Compound 219, 4-(4-fluorobenzyl)-2-((6-fluoropyridin-2-yl)methyl)-8,8-di methyl-6-(2-((2R,5R)-5-methyl-2-(((R)-3-methylmorpholino)methyl)piperazin-1-yl)acetyl)-2,6,7,8-tetrahydro-1H-pyrrolo[2,3-e][1,2,4]triazolo[4,3-a]pyridin-1-one] were 0.047 µM and 0.002 µM.
Taken in the same sequence, the figures for `C[C@@H]1CN(CC(=O)N2CC(C)(C)c3c2cc(Cc2ccc(F)cc2)c2nn(Cc4ncccc4F)c(=O)n32)[C@@H](CN2CCOC[C@H]2C)CN1` [Compound 220, 4-(4-fluorobenzyl)-2-((3-fluoropyridin-2-yl)methyl)-8,8-di methyl-6-(2-((2R,5R)-5-methyl-2-(((R)-3-methylmorpholino)methyl)piperazin-1-yl)acetyl)-2,6,7,8-tetrahydro-1H-pyrrolo[2,3-e][1,2,4]triazolo[4,3-a]pyridin-1-one] were 0.068 µM and 0.002 µM.
For the molecule `CC(=O)c1nc2c(Cc3ccc(F)cc3)cc3c(n2n1)C(C)(C)CN3C(=O)CN1C[C@@H](C)NC[C@@H]1CN1CCOC[C@H]1C` [Compound 224, 1-(2-acetyl-4-(4-fluorobenzyl)-8,8-dimethyl-7,8-dihydro-6H-pyrrolo[2,3-e][1,2,4]triazolo[1,5-a]pyridin-6-yl)-2-((2R,5R)-5-methyl-2-(((R)-3-methylmorpholino)methyl)piperazin-1-yl)ethan-1-one], the IC50 was 0.12 µM with MDA-MB-231 cells and 0.002 µM in the assay on EVSA-T cells.
Turning to `COC(=O)N(C)c1nc2c(Cc3ccc(F)cc3)cc3c(n2n1)C(C)(C)CN3C(=O)CN1C[C@@H](C)NC[C@@H]1CN1CCOC[C@H]1C` [Compound 225, methyl (4-(4-fluorobenzyl)-8,8-dimethyl-6-(2-((2R,5R)-5-methyl-2-(((R)-3-methylmorpholino)methyl)piperazin-1-yl)acetyl)-7,8-dihydro-6H-pyrrolo[2,3-e][1,2,4]triazolo[1,5-a]pyridin-2-yl)(methyl)carbamate], the 50% inhibitory concentration (IC50) in the assay with MDA-MB-231 cells was determined as 0.05 µM; with EVSA-T cells it was 0.002 µM.
In the same order, the values of `COCCn1nc2c(Cc3ccc(F)cc3)cc3c(n2c1=O)C(C)(C)CN3C(=O)CN1C[C@@H](C)NC[C@@H]1CN1CCOC[C@H]1C` [Compound 227, 4-(4-fluorobenzyl)-2-(2-methoxyethyl)-8,8-dimethyl-6-(2-((2R,5R)-5-methyl-2-(((R)-3-methylmorpholino)methyl)piperazin-1-yl)acetyl)-2,6,7,8-tetrahydro-1H-pyrrolo[2,3-e][1,2,4]triazolo[4,3-a]pyridin-1-one] are 0.082 µM and 0.002 µM.
Taken in the same sequence, the figures for `C[C@@H]1CN(CC(=O)N2CC(C)(C)c3c2cc(Cc2ccc(F)cc2)c2nn([C@@H]4CCOC4)c(=O)n32)[C@@H](CN2CCOC[C@H]2C)CN1` [Compound 228, 4-(4-fluorobenzyl)-8,8-dimethyl-6-(2-((2R,5R)-5-methyl-2-(((R)-3-methylmorpholino)methyl)piperazin-1-yl)acetyl)-2-((R)-tetrahydrofuran-3-yl)-2,6,7,8-tetrahydro-1H-pyrrolo[2,3-e][1,2,4]triazolo[4,3-a]pyridin-1-one] were 0.009 µM and 0.002 µM.
Take `C[C@@H]1CN(CC(=O)N2CC(C)(C)c3c2cc(Cc2ccc(F)cc2)c2nc(N4C[C@@H](O)[C@@H](O)C4)nn32)[C@@H](CN2CCOC[C@H]2C)CN1` [Compound 229, 1-(2-((3R,4S)-3,4-dihydroxypyrrolidin-1-yl)-4-(4-fluorobenzyl)-8,8-dimethyl-7,8-dihydro-6H-pyrrolo[2,3-e][1,2,4]triazolo[1,5-a]pyridin-6-yl)-2-((2R,5R)-5-methyl-2-(((R)-3-methylmorpholino)methyl)piperazin-1-yl)ethan-1-one]: the results for the 50% inhibitory concentration (IC50) in the assay on MDA-MB-231 cells and in the assay on EVSA-T cells were 0.076 µM and 0.007 µM, respectively.
In the same order, the values of `C[C@@H]1CN(CC(=O)N2CC(C)(C)c3c2cc(Cc2ccc(F)cc2)c2nn(-c4ncccn4)c(=O)n32)[C@@H](CN2CCOC[C@H]2C)CN1` [Compound 230, 4-(4-fluorobenzyl)-8,8-dimethyl-6-(2-((2R,5R)-5-methyl-2-(((R)-3-methylmorpholino)methyl)piperazin-1-yl)acetyl)-2-(pyrimidin-2-yl)-2,6,7,8-tetrahydro-1H-pyrrolo[2,3-e][1,2,4]triazolo[4,3-a]pyridin-1-one] are 0.038 µM and 0.008 µM.
In the case of `C[C@@H]1CN(CC(=O)N2CC(C)(C)c3c2cc(Cc2ccc(F)cc2)c2nn(CC(C)(C)O)c(=O)n32)[C@@H](CN2CCOC[C@H]2C)CN1` [Compound 231, 4-(4-fluorobenzyl)-2-(2-hydroxy-2-methylpropyl)-8,8-dim ethyl-6-(2-((2R,5R)-5-methyl-2-(((R)-3-methylmorpholino)methyl)piperazin-1-yl)acetyl)-2,6,7,8-tetrahydro-1H-pyrrolo[2,3-e][1,2,4]triazolo[4,3-a]pyridin-1-one], the 50% inhibitory concentration (IC50) is 0.028 µM in the assay on MDA-MB-231 cells and 0.004 µM with EVSA-T cells.
